In ChEMBL document CHEMBL1201862, “PubChem BioAssay data set” (2004):
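Compound exposure: 48 hours, 5 concentrations, 96-well plates. GI50 is the concentration that inhibits growth by half.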 Calls of active or inactive are those of the source. No stated cut-off is given here; in the data, active = GI50 up to about 1.1 µM and inactive = higher.

Assays:
Test in all cases: DTP human tumour cell line panel, 48 h
COLO 205 = tested on: COLO 205
OVCAR-4 = tested on: OVCAR-4
SF-268 = tested on: SF-268
MOLT-4 = tested on: MOLT-4
SNB-19 = tested on: SNB-19
MDA-MB-231 = tested on: MDA-MB-231
NCI-H522 = tested on: NCI-H522
EKVX = tested on: EKVX
NCI-H23 = tested on: NCI-H23
RPMI-8226 = tested on: RPMI-8226
U-251 = tested on: U-251
UO-31 = tested on: UO-31
NCI-H460 = tested on: NCI-H460
TK-10 = tested on: TK-10
RXF 393 = tested on: RXF 393
A549 = tested on: A549
K562 = tested on: K562
IGROV-1 = tested on: IGROV-1
OVCAR-5 = tested on: OVCAR-5
MDA-N = tested on: MDA-N
MDA-MB-435 = tested on: MDA-MB-435
HT-29 = tested on: HT-29
SK-MEL-28 = tested on: SK-MEL-28
BT-549 = tested on: BT-549
HL-60 = tested on: HL-60
CCRF-CEM = tested on: CCRF-CEM
SF-539 = tested on: SF-539
786-0 = tested on: 786-0
OVCAR-3 = tested on: OVCAR-3
HCC 2998 = tested on: HCC 2998
OVCAR-8 = tested on: OVCAR-8
HCT-116 = tested on: HCT-116
T47D = tested on: T47D
HOP-62 = tested on: HOP-62
Malme-3M = tested on: Malme-3M
SNB-75 = tested on: SNB-75
HOP-92 = tested on: HOP-92
LOX IMVI = tested on: LOX IMVI
HCT-15 = tested on: HCT-15
SK-MEL-2 = tested on: SK-MEL-2
SW-620 = tested on: SW-620
PC-3 = tested on: PC-3
SK-MEL-5 = tested on: SK-MEL-5
CAKI-1 = tested on: CAKI-1
SF-295 = tested on: SF-295
SR = tested on: SR
KM12 = tested on: KM12
NCI-H226 = tested on: NCI-H226
NCI/ADR-RES = tested on: NCI/ADR-RES
UACC-257 = tested on: UACC-257
M14 = tested on: M14
Hs-578T = tested on: Hs-578T
SN12C = tested on: SN12C
UACC-62 = tested on: UACC-62
A498 = tested on: A498
ACHN = tested on: ACHN
DU-145 = tested on: DU-145
MCF7 = tested on: MCF7
SK-OV-3 = tested on: SK-OV-3

`O=C(O)C(=Cc1ccc(-c2ccccc2)cc1)C(=O)O` was tested, and the GI50 (COLO 205) was 11.2 µM (inactive), the GI50 (OVCAR-4) was 15.1 µM (inactive) and the GI50 (SF-268) was 14.5 µM (inactive). The GI50 (MOLT-4) was 15.8 µM (inactive), the GI50 (SNB-19) was 13.6 µM (inactive) and the GI50 (MDA-MB-231) was 14.9 µM (inactive). For the same compound, the GI50 (NCI-H522) was 6.82 µM (inactive), the GI50 (EKVX) was > 100 µM (inactive) and the GI50 (NCI-H23) was 6.87 µM (inactive). For the same compound, the GI50 (RPMI-8226) was 4.26 µM (inactive), the GI50 (U-251) was 12.5 µM (inactive) and the GI50 (UO-31) was 12.4 µM (inactive). The GI50 (NCI-H460) was 14.9 µM (inactive), the GI50 (TK-10) was 13.8 µM (inactive) and the GI50 (RXF 393) was 4.02 µM (inactive). The GI50 (A549) was 18 µM (inactive), the GI50 (K562) was 5.7 µM (inactive) and the GI50 (IGROV-1) was 23.3 µM (inactive). The GI50 (OVCAR-5) was > 39.5 µM (inactive), the GI50 (MDA-N) was 19.1 µM (inactive) and the GI50 (MDA-MB-435) was 9.16 µM (inactive). For the same compound, the GI50 (HT-29) was > 25.8 µM (inactive), the GI50 (SK-MEL-28) was 15.8 µM (inactive) and the GI50 (BT-549) was 8.79 µM (inactive). The GI50 (HL-60) was 7.53 µM (inactive), the GI50 (CCRF-CEM) was 4.06 µM (inactive) and the GI50 (SF-539) was 4.78 µM (inactive). For the same compound, the GI50 (786-0) was 14.8 µM (inactive), the GI50 (OVCAR-3) was 5.53 µM (inactive) and the GI50 (HCC 2998) was 8.73 µM (inactive). For the same compound, the GI50 (OVCAR-8) was 16.6 µM (inactive), the GI50 (HCT-116) was 10.4 µM (inactive) and the GI50 (T47D) was 11 µM (inactive). The GI50 (HOP-62) was 6.75 µM (inactive), the GI50 (Malme-3M) was 14.7 µM (inactive) and the GI50 (SNB-75) was 10.6 µM (inactive). The GI50 (HOP-92) was 23.8 µM (inactive), the GI50 (LOX IMVI) was 9.75 µM (inactive) and the GI50 (HCT-15) was 12.2 µM. For the same compound, the GI50 (SK-MEL-2) was 6.95 µM (inactive), the GI50 (SW-620) was 11.3 µM (inactive) and the GI50 (PC-3) was 9.08 µM (inactive). The GI50 (SK-MEL-5) was 11 µM (inactive), the GI50 (CAKI-1) was 14.5 µM (inactive) and the GI50 (SF-295) was 18.6 µM (inactive). For the same compound, the GI50 (SR) was 1.49 µM (inactive), the GI50 (KM12) was 15.6 µM (inactive) and the GI50 (NCI-H226) was 22 µM (inactive). The GI50 (NCI/ADR-RES) was 13.2 µM (inactive), the GI50 (UACC-257) was 11.1 µM (inactive) and the GI50 (M14) was 12.4 µM (inactive). The GI50 (Hs-578T) was 24.4 µM (inactive), the GI50 (SN12C) was 11.5 µM (inactive) and the GI50 (UACC-62) was 12.3 µM (inactive). The GI50 (A498) was 19.3 µM (inactive), the GI50 (ACHN) was 18.6 µM (inactive) and the GI50 (DU-145) was 3.66 µM (inactive). For the same compound, the GI50 (MCF7) was 11.5 µM (inactive) and the GI50 (SK-OV-3) was 12.6 µM (inactive).
For `C=CCSSCC=C`, the GI50 (COLO 205) was 41.6 µM (inactive), the GI50 (OVCAR-4) was > 76.6 µM (inactive) and the GI50 (SF-268) was 47.9 µM (inactive). For the same compound, the GI50 (MOLT-4) was 1.8 µM (inactive), the GI50 (SNB-19) was > 100 µM (inactive) and the GI50 (MDA-MB-231) was 16.8 µM (inactive). For the same compound, the GI50 (NCI-H522) was 15.9 µM (inactive), the GI50 (EKVX) was > 100 µM (inactive) and the GI50 (NCI-H23) was > 58.3 µM (inactive). For the same compound, the GI50 (RPMI-8226) was 4.05 µM (inactive), the GI50 (U-251) was 61.4 µM (inactive) and the GI50 (UO-31) was 32.9 µM (inactive). For the same compound, the GI50 (NCI-H460) was 32.4 µM (inactive), the GI50 (TK-10) was > 100 µM (inactive) and the GI50 (RXF 393) was 32.3 µM (inactive). The GI50 (A549) was > 83.8 µM (inactive), the GI50 (K562) was 5.5 µM (inactive) and the GI50 (IGROV-1) was > 71.6 µM (inactive). The GI50 (OVCAR-5) was 51.6 µM (inactive), the GI50 (MDA-N) was 19.8 µM (inactive) and the GI50 (MDA-MB-435) was 32.1 µM (inactive). For the same compound, the GI50 (HT-29) was 38.4 µM (inactive), the GI50 (SK-MEL-28) was > 74.8 µM (inactive) and the GI50 (BT-549) was 42.3 µM (inactive). For the same compound, the GI50 (HL-60) was 3.49 µM (inactive), the GI50 (CCRF-CEM) was 1.98 µM (inactive) and the GI50 (SF-539) was 29.5 µM (inactive). For the same compound, the GI50 (786-0) was 22.5 µM (inactive), the GI50 (OVCAR-3) was 52 µM (inactive) and the GI50 (HCC 2998) was > 100 µM (inactive). For the same compound, the GI50 (OVCAR-8) was 27.6 µM (inactive), the GI50 (HCT-116) was 13.6 µM (inactive) and the GI50 (T47D) was > 100 µM (inactive). For the same compound, the GI50 (HOP-62) was > 71.9 µM (inactive), the GI50 (Malme-3M) was 40.9 µM (inactive) and the GI50 (SNB-75) was 60.8 µM (inactive). The GI50 (HOP-92) was 28.5 µM (inactive), the GI50 (LOX IMVI) was 9.73 µM (inactive) and the GI50 (HCT-15) was 38.5 µM. For the same compound, the GI50 (SK-MEL-2) was > 71.1 µM (inactive), the GI50 (SW-620) was 19.1 µM (inactive) and the GI50 (PC-3) was 39.8 µM (inactive). The GI50 (SK-MEL-5) was 35.4 µM (inactive), the GI50 (CAKI-1) was 44.8 µM (inactive) and the GI50 (SF-295) was 55.5 µM (inactive). For the same compound, the GI50 (SR) was 4.09 µM (inactive), the GI50 (KM12) was 68.9 µM (inactive) and the GI50 (NCI-H226) was 32.1 µM (inactive). The GI50 (NCI/ADR-RES) was 28.1 µM (inactive), the GI50 (UACC-257) was 32.8 µM (inactive) and the GI50 (M14) was 31.8 µM (inactive). For the same compound, the GI50 (Hs-578T) was 27.9 µM (inactive), the GI50 (SN12C) was 36.7 µM (inactive) and the GI50 (UACC-62) was 44.3 µM (inactive). For the same compound, the GI50 (A498) was > 100 µM (inactive), the GI50 (ACHN) was > 73.6 µM (inactive) and the GI50 (DU-145) was > 100 µM (inactive). The GI50 (MCF7) was 30.3 µM (inactive) and the GI50 (SK-OV-3) was 90.4 µM (inactive).
